In US8952024B2, “Herbicidal pyrimidone derivatives” (E I du Pont de Nemours and Company, priority 2009, dated 2015):

Key:
Test in all cases: Test B pre-/postemergence plant response
Type in all cases: in vivo
[1] = test system: large crabgrass (Digitaria sanguinalis)
How it was run: (§1)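 Test compounds, formulated in a non-phytotoxic solvent mixture with surfactant, are applied to the soil surface (loam and sand blend) right after seeding, or sprayed over plants at the 1- to 4-leaf stage grown in peat moss/vermiculite medium. After 13 to 15 days under glasshouse conditions, each species is scored visually from 0 (no effect) to 100 (complete control) against controls.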

[2] = test system: downy bromegrass (Bromus tectorum)
How it was run: as §1

wild oat (Avena fatua) = test system: wild oat (Avena fatua)
How it was run: as §1

[3] = test system: goosegrass (Eleusine indica)
How it was run: as §1

[4] = test system: pigweed (Amaranthus retroflexus)
How it was run: as §1

[5] = test system: morningglory (Ipomoea coccinea)
How it was run: as §1

[6] = test system: johnsongrass (Sorghum halepense)
How it was run: as §1

[7] = test system: green foxtail (Setaria viridis)
How it was run: as §1

[8] = test system: yellow nutsedge (Cyperus esculentus)
How it was run: as §1

[9] = test system: Surinam grass (Brachiaria decumbens)
How it was run: as §1

[10] = test system: lambsquarters (Chenopodium album)
How it was run: as §1

corn (Zea mays) = test system: corn (Zea mays)
How it was run: as §1

[11] = test system: woolly cupgrass (Eriochloa villosa)
How it was run: as §1

kochia (Kochia scoparia) = conditions: Postemergence; for Plant response rating, Kochia: scale 0 (no effect) to 100 (complete control)
How it was run: as §1

[12] = test system: velvetleaf (Abutilon theophrasti)
How it was run: as §1

[13] = test system: blackgrass (Alopecurus myosuroides)
How it was run: as §1

soybean (Glycine max) = test system: soybean (Glycine max)
How it was run: as §1

[14] = 250 g ai/ha, Preemergence, 0 to 100 scale
[15] = Postemergence, 31 g ai/ha, scale 0 to 100 (0 no effect, 100 complete control)
[16] = Postemergence, 62 g ai/ha, scale 0 (no effect) to 100 (complete control), 13 to 15 days
[17] = Postemergence, 125 g ai/ha, visual rating after 13 to 15 days, scale 0 (no effect) to 100 (complete control)
[18] = Postemergence, 250 g ai/ha, scale 0 to 100
[19] = Preemergence, 31 g ai/ha, scale 0 to 100 (0 no effect, 100 complete control)
[20] = Preemergence, 62 g ai/ha, scale 0 to 100, 0 no effect, 100 complete control
[21] = Preemergence, 125 g ai/ha, 0 to 100 scale

Structure (SMILES): Cc1cc(F)ccc1-n1c(-c2ccccc2)ncc(C(=O)C2=C(O)CCCC2=O)c1=O [Compound 48]
- Plant response rating, Crabgrass, Large [1, 14]: 100
- Plant response rating, Crabgrass, Large [1, 15]: 85
- Plant response rating, Crabgrass, Large [1, 16]: 85
- Plant response rating, Crabgrass, Large [1, 17]: 95
- Crabgrass, Large plant response rating [1, 18]: 95
- Plant response rating, Crabgrass, Large [1, 19]: 75
- Plant response rating, Crabgrass, Large [1, 20]: 90
- Crabgrass, Large plant response rating [1, 21]: 100
- Plant response rating, Bromegrass, Downy [2, 14]: 45
- Plant response rating, Bromegrass, Downy [2, 15]: 10
- Plant response rating, Bromegrass, Downy [2, 16]: 25
- Plant response rating, Bromegrass, Downy [2, 17]: 50
- Bromegrass, Downy plant response rating [2, 18]: 70
- Plant response rating, Bromegrass, Downy [2, 19]: 0
- Plant response rating, Bromegrass, Downy [2, 20]: 0
- Bromegrass, Downy plant response rating [2, 21]: 0
- Plant response rating, Oat, Wild (wild oat (Avena fatua); [14]): 15
- Plant response rating, Oat, Wild (wild oat (Avena fatua); [16]): 50
- Plant response rating, Oat, Wild (wild oat (Avena fatua); [17]): 85
- Plant response rating, Oat, Wild (wild oat (Avena fatua); [19]): 0
- Oat, Wild plant response rating (wild oat (Avena fatua); [21]): 0
- Plant response rating, Goosegrass [3, 14]: 100
- Plant response rating, Goosegrass [3, 16]: 85
- Plant response rating, Goosegrass [3, 17]: 95
- Goosegrass plant response rating [3, 18]: 98
- Plant response rating, Goosegrass [3, 19]: 98
- Goosegrass plant response rating [3, 21]: 100
- Plant response rating, Pigweed [4, 14]: 100
- Plant response rating, Pigweed [4, 16]: 85
- Plant response rating, Pigweed [4, 17]: 100
- Plant response rating, Pigweed [4, 19]: 100
- Pigweed plant response rating [4, 21]: 100
- Plant response rating, Morningglory [5, 14]: 100
- Plant response rating, Morningglory [5, 16]: 70
- Plant response rating, Morningglory [5, 17]: 80
- Plant response rating, Morningglory [5, 19]: 0
- Plant response rating, Morningglory [5, 20]: 100
- Morningglory plant response rating [5, 21]: 100
- Plant response rating, Johnsongrass [6, 14]: 98
- Plant response rating, Johnsongrass [6, 16]: 80
- Plant response rating, Johnsongrass [6, 17]: 80
- Johnsongrass plant response rating [6, 18]: 95
- Plant response rating, Johnsongrass [6, 19]: 20
- Plant response rating, Johnsongrass [6, 20]: 45
- Johnsongrass plant response rating [6, 21]: 90
- Plant response rating, Foxtail, Green [7, 14]: 98
- Plant response rating, Foxtail, Green [7, 15]: 85
- Plant response rating, Foxtail, Green [7, 16]: 95
- Plant response rating, Foxtail, Green [7, 17]: 95
- Foxtail, Green plant response rating [7, 18]: 95
- Plant response rating, Foxtail, Green [7, 19]: 60
- Plant response rating, Foxtail, Green [7, 20]: 60
- Foxtail, Green plant response rating [7, 21]: 98
- Plant response rating, Nutsedge, Yellow [8, 14]: 90
- Plant response rating, Nutsedge, Yellow [8, 16]: 45
- Plant response rating, Nutsedge, Yellow [8, 17]: 60
- Plant response rating, Nutsedge, Yellow [8, 19]: 20
- Nutsedge, Yellow plant response rating [8, 21]: 85
- Plant response rating, Surinam Grass [9, 14]: 100
- Plant response rating, Surinam Grass [9, 16]: 85
- Plant response rating, Surinam Grass [9, 17]: 95
- Plant response rating, Surinam Grass [9, 19]: 80
- Surinam Grass plant response rating [9, 21]: 100
- Plant response rating, Lambsquarters [10, 14]: 100
- Plant response rating, Lambsquarters [10, 16]: 95
- Plant response rating, Lambsquarters [10, 17]: 100
- Lambsquarters plant response rating [10, 18]: 100
- Plant response rating, Lambsquarters [10, 19]: 100
- Plant response rating, Lambsquarters [10, 20]: 100
- Lambsquarters plant response rating [10, 21]: 100
- Plant response rating, Corn (corn (Zea mays); [14]): 0
- Plant response rating, Corn (corn (Zea mays); [15]): 65
- Plant response rating, Corn (corn (Zea mays); [16]): 70
- Plant response rating, Corn (corn (Zea mays); [17]): 85
- Corn plant response rating (corn (Zea mays); [18]): 85
- Plant response rating, Corn (corn (Zea mays); [19]): 0
- Plant response rating, Corn (corn (Zea mays); [20]): 0
- Corn plant response rating (corn (Zea mays); [21]): 0
- Plant response rating, Cupgrass, Woolly [11, 14]: 95
- Plant response rating, Cupgrass, Woolly [11, 15]: 80
- Plant response rating, Cupgrass, Woolly [11, 16]: 80
- Plant response rating, Cupgrass, Woolly [11, 17]: 90
- Cupgrass, Woolly plant response rating [11, 18]: 95
- Plant response rating, Cupgrass, Woolly [11, 19]: 10
- Plant response rating, Cupgrass, Woolly [11, 20]: 10
- Cupgrass, Woolly plant response rating [11, 21]: 75
- Plant response rating, Kochia (kochia (Kochia scoparia); 62 g ai/ha, 13 to 15 days): 98
- Plant response rating, Kochia (kochia (Kochia scoparia); 125 g ai/ha, visual rating after 13 to 15 days): 100
- Kochia plant response rating (kochia (Kochia scoparia); 250 g ai/ha, scale 0 to 100): 100
- Plant response rating, Velvetleaf [12, 14]: 100
- Plant response rating, Velvetleaf [12, 16]: 85
- Plant response rating, Velvetleaf [12, 17]: 98
- Plant response rating, Velvetleaf [12, 19]: 75
- Velvetleaf plant response rating [12, 21]: 100
- Plant response rating, Blackgrass [13, 14]: 5
- Plant response rating, Blackgrass [13, 15]: 0
- Plant response rating, Blackgrass [13, 16]: 5
- Plant response rating, Blackgrass [13, 17]: 20
- Blackgrass plant response rating [13, 18]: 30
- Plant response rating, Blackgrass [13, 19]: 0
- Plant response rating, Blackgrass [13, 20]: 0
- Blackgrass plant response rating [13, 21]: 0
- Plant response rating, Soybean (soybean (Glycine max); [14]): 20
- Plant response rating, Soybean (soybean (Glycine max); [16]): 95
- Plant response rating, Soybean (soybean (Glycine max); [17]): 98
- Plant response rating, Soybean (soybean (Glycine max); [19]): 0
- Soybean plant response rating (soybean (Glycine max); [21]): 0
